Data on 5 compounds can be found in paper PMC7899551, “Phase 1 study of Z-endoxifen in patients with advanced gynecologic, desmoid, and hormone receptor-positive solid tumors” (Oncotarget, 2021).

Where “and” joins values, the source holds several entries; their conditions need not be identical. Equal values may be shown once. Bounds are passed on as bounds.

One data set has as its system ERα. To be noted: cited from earlier work.
The subject of the next data set is ERβ. To be noted: cited from earlier work.
Data set [1] is described as follows: Plasma pharmacokinetics of Z-endoxifen (HPLC assay, non-compartmental analysis). The data set is classed as in vivo, human. How it is done: This was an open-label trial of Z-endoxifen in patients with advanced solid tumors (https://clinicaltrials.gov/ identifier: NCT01273168). Z-endoxifen-HCl was supplied by the Pharmaceutical Management Branch, National Cancer Institute, as 20 and 40 mg capsules; agent was administered orally once daily on a continuous schedule in 28-day cycles with a starting dose of 20 mg/day taken either 1 hour before or 2 hours after meals. Dose escalation followed a traditional 3+3 design in which patients were dose-escalated to the next dose level (DL) in cohorts of 3 patients until dose-limiting toxicity (DLT) was observed. DLT was defined as an adverse event that occurred during cycle 1, was thought to be related to study drug administration, and met one of the following criteria: grade ≥ 3 non-hematologic toxicities (except diarrhea, nausea and vomiting, alopecia, rising creatinine or electrolyte toxicities that resolved within 24 hours, or intolerable estrogen withdrawal symptoms) or grade ≥ 3 hematologic toxicities (except neutropenia lasting less than 5 days, lymphopenia, or anemia). Eight dose levels (DL1-8) were examined: 20, 40, 60, 100, 140, 200, 280, and 360 mg, respectively. Two patients at DL8 received the free base form of Z-endoxifen on day 1 rather than the hydrochloride salt to assess the pharmacokinetics of that formulation.
A 3-mL blood sample was collected in a K2 EDTA tube on day 1 of cycle 1 before drug administration and at the following times post-first dose: 0.5, 1, 2, 3, 4, 6, 8, and 24 hours. Samples were collected at the same time points on day 28 of cycle 1 for DL1-6 until a protocol amendment eliminated the requirement for these samples at the higher dose levels. Samples were wrapped in aluminum foil after collection to protect from light exposure. A 10-mL aliquot of urine was collected before agent administration on cycle 1 day 1, for 24 hours after dosing on day 1, and before drug administration on cycle 2 day 1; samples were refrigerated prior to analysis.
Plasma and urine concentrations of Z- and E-endoxifen were measured using a validated, post-column fluorescence derivatization HPLC assay. Non-compartmental pharmacokinetic parameters were calculated using WinNonlin version 7.0 (Pharsight Corp., Mountainview, CA, USA). A 2 μM Cmax target was established for day 28 plasma concentration. The amount of Z-endoxifen excreted in urine was measured over a 24-hour collection period.

Data set [2] concerns metastatic ER+ breast cancer. To be noted: women with metastatic ER+ breast cancer; cited from earlier work.
In data set [3] the test system is hormone-refractory prostate cancer. To be noted: 200 mg/m^2/day, men with hormone-refractory prostate cancer; cited from earlier work.
The subject of the next data set is ovarian cancer. To be noted: patients with ovarian cancer; cited from earlier work.
[4] abbreviates: free base, 360 mg oral, day 1, mean of patients 35 and 36.
Where [5] appears, read: free base, 360 mg oral, day 1, patients 35 and 36 individually.

As usually defined, the Tmax is the time at which the peak concentration occurs.

4-hydroxy-tamoxifen: the “binding affinity relative to tamoxifen or NDM-tamoxifen” value with ERα and in the data set with ERβ was “approximately 100 fold” in each case.

On to `CC/C(=C(/c1ccc(O)cc1)c1ccc(OCCNC)cc1)c1ccccc1` [E-endoxifen], for which the “Plasma concentration as percentage of Z-endoxifen levels” value in data set [1] (after oral Z-endoxifen) is less than 2%.

As to `CC/C(=C(\c1ccc(O)cc1)c1ccc(OCCNC)cc1)c1ccccc1` [Endoxifen, 4-hydroxy-N-desmethyl-tamoxifen], the “binding affinity relative to tamoxifen or NDM-tamoxifen” value in the data set with ERα and with ERβ was “approximately 100 fold” each time.

Regarding `CC/C(=C(\c1ccc(O)cc1)c1ccc(OCCNC)cc1)c1ccccc1` [free base form of Z-endoxifen], in data set [1] (setting [4]), the “AUC(0–24 h), Mean” value stood at 25248 ng·h/mL; the “C24 h, Mean” value was 790 ng/mL; the Cmax, Mean amounted to 1770 ng/mL; the “Tmax, Mean” value worked out at 5.0 h. For the same compound, in data set [1] (setting [5]), the “AUC(0–24 h)” value is 8959 ng·h/mL and 41537 ng·h/mL; the C24h was 12 ng/mL and 1568 ng/mL; the Tmax is 6.0 h and 4.0 h.

Regarding `CC/C(=C(\c1ccccc1)c1ccc(OCCN(C)C)cc1)c1ccccc1` [tamoxifen], the women deriving benefit entry in data set [2] is given as “about 50%”. The “mean plasma tamoxifen concentration” value in data set [3] was 2.94 (± 1.15) μM. In the data set with ovarian cancer, the complete responses is recorded as 4%, the partial responses is reported as 9% and the stable disease is recorded as 38%.
